{"source": "ChEMBL document CHEMBL5120802", "about": "“Kumemicinones A-G, Cytotoxic Angucyclinones from a Deep Sea-Derived Actinomycete of the Genus Actinomadura” (J Nat Prod, 2022)", "assay": "Cytotoxicity against mouse P388 cells assessed as reduction in cell viability measured after 72 hrs by XTT assay", "format": "functional, cell-based", "settings": "P388, 72 h", "data": [{"smiles": "C[C@]1(O)C=C[C@H]2[C@](O)(CC[C@]34O[C@]23[C@@H](O)c2cccc(O)c2C4=O)C1", "values": [{"measurement": "IC50", "value": 1.8, "unit": "µM"}]}, {"smiles": "C[C@@]1(O)C=C[C@H]2[C@](O)(CC[C@]34O[C@]23[C@@H](O)c2cccc(O)c2C4=O)C1", "values": [{"measurement": "IC50", "value": 7.6, "unit": "µM"}]}, {"smiles": "CC1=C[C@@H](O)[C@H]2[C@](O)(CC[C@]3(Oc4cccc5c4C(=O)[C@]46CC[C@]7(O)CC(C)=C[C@@H](O)[C@@H]7[C@]4(O6)[C@H]5O)C(=O)c4c(O)cccc4[C@H](O)[C@@]23O)C1", "values": [{"measurement": "IC50", "value": 9.7, "unit": "µM"}]}, {"smiles": "CC1=C[C@@H](O)[C@H]2[C@](O)(CC[C@]34O[C@]23[C@@H](O)c2cccc(O[C@]35CC[C@]6(O)C[C@@](C)(O)C=C[C@@H]6[C@]3(O)[C@@H](O)c3cccc(O)c3C5=O)c2C4=O)C1", "values": [{"measurement": "IC50", "value": 10.7, "unit": "µM"}]}, {"smiles": "Cc1ccc2c(c1)CC[C@]1(S[C@]34CCc5cc(C)ccc5[C@]3(O)[C@@H](O)c3cccc(O)c3C4=O)C(=O)c3c(O)cccc3[C@H](O)[C@@]21O", "values": [{"measurement": "IC50", "value": 6.1, "unit": "µM"}]}, {"smiles": "CC1=C[C@@H]2O[C@]34CC[C@](O)(C1)[C@H]2[C@]3(O)[C@@H](O)c1cccc(O)c1C4=O", "values": [{"measurement": "IC50", "value": 28.6, "unit": "µM"}]}, {"smiles": "CC1=C[C@@H](O)[C@@H]2C(=O)[C@@]3(CC[C@]2(O)C1)C(=O)c1c(O)cccc1[C@H]3O", "values": [{"measurement": "IC50", "value": 53.3, "unit": "µM"}]}, {"smiles": "CC1=C[C@@H](O)[C@H]2[C@](O)(CC[C@]34O[C@]23[C@@H](O)c2cccc(O)c2C4=O)C1", "values": [{"measurement": "IC50", "value": 1.7, "unit": "µM"}]}, {"smiles": "CC1=CC(=O)C2=C3[C@@H](O)c4cccc(O)c4C(=O)[C@]3(O)CC[C@]2(O)C1", "values": [{"measurement": "IC50", "value": 12, "unit": "µM"}]}]}
